Experimental data reported in publication PMC3863468 (BioMed Research International, 2013).

Tests used:
[1] = Pharmacokinetic experiment: serum imatinib and N-desmethyl imatinib by HPLC after oral imatinib with or without apigenin; conditions: for AUC(0–t) / AUC(0–∞) / C max / CLz/F / MRT(0–t) / MRT(0–∞) / T max / Vz/F / t (1/2)z: then single oral 30 mg/kg imatinib, rat serum, n = 5
Procedure: HPLC system (Agilent 1100) was equipped with quaternary pump, on-line vacuum degasser, autosampler, column compartment, diode array detector, and Agilent Chem Station Rev A.10.02. […] The detection wavelength was 282 nm, and the injection volume was 20.0 μL.
The serum samples were prepared using liquid-liquid extraction technique. A 300 μL aliquot of the serum sample was taken in a 10 mL glass test tube, and on that 20 μL of IS (100 μg/mL) was spiked and 150 μL of sodium hydroxide solution (0.01 moL/L) was added. After vortex mixing for 30 s, 3 mL of ethyl acetate was added, and the mixture was vortexed for 1 min and then centrifuged at 3000 ×g for 5 min. The organic layer was transferred into another 5 mL tube and evaporated to dryness under a stream of nitrogen gas at 40°C. The residue was reconstituted in 100 μL of mobile phase and vortex-mixed for 1 min, and 20 μL of aliquot was injected into the HPLC system for analysis.
Experimental values were expressed as x-±s . Statistical analyses of main pharmacokinetic parameters were performed by Student's unpaired test using SPSS 16.0 software. A value of P < 0.05 was considered to be significant between two groups.

[2] = cited from earlier work
[3] = group B: apigenin 165 mg/kg for 15 days
[4] = group C: single dose apigenin 165 mg/kg
[5] = group D (single dose apigenin 252 mg/kg) vs group B, rats, 30 mg/kg imatinib
[6] = group D: single dose apigenin 252 mg/kg
[7] = short-term 165 mg/kg apigenin (group C), printed comparison with group B, rats, 30 mg/kg imatinib

Cc1ccc(NC(=O)c2ccc(CN3CCNCC3)cc2)cc1Nc1nccc(-c2cccnc2)n1 [N-desmethyl imatinib]
AUC(0–t) ([1]; group A: control (0.5% CMC-Na)): 5977 ± 1626 ng·h/mL
AUC(0–∞) ([1]; group A: control (0.5% CMC-Na)): 6827 ± 2595 ng·h/mL
C max ([1]; group A: control (0.5% CMC-Na)): 678 ± 147 ng/mL
CLz/F ([1]; group A: control (0.5% CMC-Na)): 81.9 ± 29.7 mL/min/kg
MRT(0–t) ([1]; group A: control (0.5% CMC-Na)): 7.085 ± 1.135 h
MRT(0–∞) ([1]; group A: control (0.5% CMC-Na)): 9.718 ± 4.636 h
T max ([1]; group A: control (0.5% CMC-Na)): 3.6 ± 0.894 h
Vz/F ([1]; group A: control (0.5% CMC-Na)): 32.8 ± 10.3 L/kg
t (1/2)z ([1]; group A: control (0.5% CMC-Na)): 5.495 ± 3.92 h
main pharmacokinetic parameters, difference between group A and group B ([1]; group B (apigenin 165 mg/kg for 15 days) vs group A (control), rats): no great differences
AUC(0–t) [1, 3]: 6335 ± 1105 ng·h/mL
AUC(0–∞) [1, 3]: 6672 ± 797 ng·h/mL
C max [1, 3]: 797 ± 73 ng/mL
CLz/F [1, 3]: 75.9 ± 9.87 mL/min/kg
MRT(0–t) [1, 3]: 6.573 ± 0.544 h
MRT(0–∞) [1, 3]: 7.504 ± 0.189 h
T max [1, 3]: 4.0 ± 0.003 h
Vz/F [1, 3]: 26.8 ± 4.49 L/kg
t (1/2)z [1, 3]: 4.083 ± 0.436 h
AUC(0–t) [1, 4]: 4797 ± 602 ng·h/mL
AUC(0–∞) [1, 4]: 5050 ± 797 ng·h/mL
C max [1, 4]: 547 ± 91 ng/mL
CLz/F [1, 4]: 101 ± 16.5 mL/min/kg
MRT(0–t) [1, 4]: 7.227 ± 0.525 h
MRT(0–∞) [1, 4]: 8.397 ± 1.545 h
T max [1, 4]: 4.0 ± 0.005 h
Vz/F [1, 4]: 40.7 ± 12.8 L/kg
t (1/2)z [1, 4]: 4.906 ± 2.093 h
C max reduced compared with group B [1, 5]: 19.82%
V z/F decrease compared with group B [1, 5]: 62.10%
AUC(0–t) [1, 6]: 5262 ± 890 ng·h/mL
AUC(0–∞) [1, 6]: 5545 ± 814 ng·h/mL
C max [1, 6]: 639 ± 130 ng/mL
CLz/F [1, 6]: 91.8 ± 13.9 mL/min/kg
MRT(0–t) [1, 6]: 7.326 ± 0.53 h
MRT(0–∞) [1, 6]: 8.679 ± 1.301 h
T max [1, 6]: 3.8 ± 0.447 h
Vz/F [1, 6]: 43.5 ± 16.1 L/kg
t (1/2)z [1, 6]: 5.376 ± 1.495 h
AUC(0−t) increased in comparison with group B [1, 7]: 19.7%
C max increased in comparison with group B [1, 7]: 19.3%

Cc1ccc(NC(=O)c2ccc(CN3CCN(C)CC3)cc2)cc1Nc1nccc(-c2cccnc2)n1 [imatinib, reference compound]
V z/F decreased (printed: in group B) ([1]; male, Sprague-Dawley, rat, in vivo, 30 mg/kg): 55.1%
AUC(0-t) ([1]; male, Sprague-Dawley, rat, in vivo, po, 30 mg/kg, AUC(0–t)): 90600 ± 11300 ng·h/mL
AUC(0-inf) ([1]; male, Sprague-Dawley, rat, in vivo, po, 30 mg/kg, AUC(0–∞)): 91000 ± 11600 ng·h/mL
Cmax ([1]; male, Sprague-Dawley, rat, in vivo, po, 30 mg/kg, C max): 12100 ± 2020 ng/mL
Tmax ([1]; male, Sprague-Dawley, rat, in vivo, po, 30 mg/kg, T max): 3 ± 1 h
oral bioavailability [2]: ~97%

O=c1cc(-c2ccc(O)cc2)oc2cc(O)cc(O)c12 [apigenin, reference compound]
dose dependence of effect on imatinib ([1]; 252 mg/kg vs 165 mg/kg short-time apigenin, rats): not dose dependent
effect on the metabolism of imatinib in vivo ([1]; long-term oral administration of apigenin (165 mg/kg for 15 days), rats): accelerated
effect on the metabolism of imatinib in vivo ([1]; single dose of apigenin, rats): inhibited
